According to patent US10195156B2, “Compounds and compositions for intracellular delivery of agents” (ModernaTX, Inc., priority 2015, dated 2019):
Where two headings read alike, the source gives them in different places.

Tests used:
[1] = system: luciferase (Luc) mRNA expression; test: Expression of Luc induced by sample formulations, whole-body bioluminescence after intravenous administration; format: in vivo; settings: for Total Flux 3 hours / Total Flux 6 hours / Total Flux 24 hours: Table 2; for Luc expression in mice compared with MC3 (in words): Table 7a
Outline: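 Read-out is whole-body bioluminescence at 3, 6 and 24 h after a single intravenous dose of 0.5 mg/kg Luc mRNA in nanoparticle formulations. Groups of n=6 mice; PBS and standard MC3 formulation as references.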

hEPO mRNA expression = test: Expression of hEPO in rats after intravenous administration; format: in vivo; settings: for hEPO expression in rats (in words): FIG. 8, 2 mpk (Graph A)
Protocol: PBS (phosphate buffered saline) is used as control.
Formulations were prepared according to Table 5 and included mRNA encoding hEPO.
[…] After the 48 hour time point, livers and spleens were harvested and frozen.

[2] = Tolerability / toxicity in rats (hEPO study); format: in vivo; settings: FIG. 8, i.v., 2 mg/kg dose
IL-6 = test: Cytokine production induced by sample formulations: IL-6; format: in vivo; settings: Table 4; mice, i.v., 0.5 mpk, 6 hours; in pg/mL (unit assumed)
Outline: (§1)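 Cytokine levels were quantified at 6 hours in mice given the nanoparticle compositions i.v. at 0.5 mpk. MC3 standard formulation and PBS served as comparators.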

[3] = pKa of nanoparticle compositions; format: physicochemical
[4] = system: modified luciferase expression; test: Expression of Luc in different organs (liver, lung, spleen, femur) 6 hours after intravenous administration; format: in vivo; settings: Table 3, mice, i.v., 0.5 mpk
Protocol: The efficacy of the nanoparticle compositions presented in Tables 1, 1a, 17-1, 19-1, 20-1 and 21-1 was further evaluated by measuring the expression of modified luciferase in the liver, lung, spleen, and femur upon administration of a given composition. Formulations were administered intravenously to mice (n=3) at a dosage of 0.5 mpk and bioluminescence measured after 6 hours. The standard MC3 formulation and a PBS control were also tested.

LDL-c = test: LDL levels in LDLr−/− mice after mRNA encoding the LDL receptor; format: in vivo, LDLR knockout mice
[5] = Encapsulation efficiency of RNA (QUANT-IT RIBOGREEN RNA assay); format: physicochemical
Outline: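 RiboGreen fluorescence (ex ~480, em ~520 nm) measured after 15 min at 37 °C on samples at ~5 μg/mL in TE, pH 7.5, ± 2% Triton X-100 solution. After blank subtraction, free RNA is given as intact-sample signal divided by disrupted-sample signal.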

[6] = Particle size and polydispersity index of nanoparticle compositions (Zetasizer Nano ZS); format: physicochemical
Outline: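 Zetasizer Nano ZS; samples in 1×PBS; read-out: particle size plus polydispersity index.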

LDLr−/− mice = test: Expression in LDLr−/− mice (LDLr dependence); format: in vivo; settings: FIG. 9, FIG. 10
IP-10 = test: Cytokine production induced by sample formulations: IP-10; format: in vivo; settings: Table 4; mice, i.v., 0.5 mpk, 6 hours; in pg/mL (unit assumed)
Outline: as §1

[7] = Concentration of RNA in nanoparticle composition (ultraviolet-visible spectroscopy); format: physicochemical; settings: Table 5, hEPO mRNA
Protocol: Ultraviolet-visible spectroscopy can be used to determine the concentration of a therapeutic and/or prophylactic agent (e.g., RNA) in nanoparticle compositions. 100 μL of the diluted formulation in 1×PBS is added to 900 μL of a 4:1 (v/v) mixture of methanol and chloroform. After mixing, the absorbance spectrum of the solution is recorded, for example, between 230 nm and 330 nm on a DU 800 spectrophotometer (Beckman Coulter, Beckman Coulter, Inc., Brea, Calif.). The concentration of therapeutic and/or prophylactic agent in the nanoparticle composition can be calculated based on the extinction coefficient of the therapeutic and/or prophylactic agent used in the composition and on the difference between the absorbance at a wavelength of, for example, 260 nm and the baseline value at a wavelength of, for example, 330 nm.

[8] = Lipid levels in liver and spleen 48 hours after administration; format: in vivo, rats; settings: 48 hours after administration; for concentration at 48 h: Sprague-Dawley, rat, intravenous
Protocol: Formulations were administered intravenously to rats (n=3 or 6) at a dosage of 0.2 mg/kg or 0.5 mg/kg (mpk) and hEPO levels measured at 3, 6, and 24 hour time points. After the 48 hour time point, livers and spleens were harvested and frozen.
The amount of lipid in the liver and spleen 48 hours after administration of a nanoparticle composition was also measured. […] In contrast, approximately 60% of doses including MC3 or Compound 22 remained in the liver after 48 hours. Less than 3% of the dose remained in the spleen for each composition tested.

[9] = Table 1, rows without footnote mark
[10] = Table 1, rows without footnote mark (lipid:DOPE:cholesterol:PEG-DMG 40:20:38.5:1.5, Luc mRNA; MC3 standard formulation)
[11] = 40:20:38.5:1.5 Lipid:DOPE:Chol:PEG-DMG
[12] = Table 5, hEPO mRNA, 40:20:38.5:1.5 Lipid:DOPE:Chol:PEG-DMG
[13] = Table 5, hEPO mRNA, 50:10:38.5:1.5 Lipid:DSPC:Chol:PEG-DMG

| Compound | Total Flux 3 hours ([1]; mice, i.v., 0.5 mg/kg, 3 hours) | Total Flux 6 hours ([1]; mice, i.v., 0.5 mg/kg) | Total Flux 24 hours ([1]; mice, i.v., 0.5 mg/kg) | hEPO expression in rats (in words) (hEPO mRNA expression; rats, i.v.) | tolerability / toxicity in rats (in words) [2] | IL-6 (IL-6) | pKa [3, 9] | Total Flux Femur [4] | Total Flux Liver [4] | Total Flux Lung [4] | Total Flux Spleen [4] | EE (%) [5, 9] [%] | PDI [6, 9] | Size (nm) [6, 10] [nm] | IP-10 (IP-10) | Luc expression in mice compared with MC3 (in words) [1] | Conc. [7, 11] [µg/mL] | pKa [3, 12] | EE (%) [5, 12] [%] | PDI [6, 12] | also measured |
| --- | --- | --- | --- | --- | --- | --- | --- | --- | --- | --- | --- | --- | --- | --- | --- | --- | --- | --- | --- | --- | --- |
| CCCCCCCCCCCCN(CCCCCCCCCCCC)CCN(CCCCCCCCCCCC)CC(=O)N1CCN(C(=O)CN(CCCCCCCCCCCC)CCCCCCCCCCCC)CC1 [Compound 11, 2-(Didodecylamino)-1-(4-(N-(2-(didodecylamino)ethyl)-N-dodecylglycyl)piperazin-1-yl)ethan-1-one] | 1.23E+10 | 3.81E+09 | 8.20E+08 | comparable to MC3 | improved tolerability as compared to KL22 | 250 | 6.54 | 1.47E+06 | 1.67E+09 | 2.21E+06 | 7.21E+06 | 99.5 | 0.099 | 87.4 | 3305 | – | – | – | – | – | LDL-c levels in LDLR knockout mice (in words) (LDL-c; FIG. 9 Graph B, mRNA encoding the LDL receptor, 0.5 and 1 mpk): found to drop; LDLr dependence of the lipid (in words) (LDLr−/− mice): LDLr independent lipid |
| CCCCCCCCCCCCN(CCCCCCCCCCCC)CCN(CCCCCCCCCCCC)CCN1CCN(CCN(CCCCCCCCC)CCCCCCCCC)CC1 [Compound 23, N^1-(2-(4-(2-(Dinonylamino)ethyl)piperazin-1-yl)ethyl)-N^1,N^2,N^2-tridodecylethane-1,2-diamine] | 2.33E+10 | 3.40E+10 | 1.06E+09 | – | toxic | 259 | 6.07 | 3.17E+06 | 4.94E+09 | 1.51E+07 | 2.95E+07 | 82.9 | 0.058 | 85.4 | 3702 | several fold higher | 438.20 | 6.070 | 77.19 | 0.16 | total flux after 3 hours, rank within the named table (in words) ([1]; mice, i.v., 0.5 mg/kg, 3 hours): highest flux after 3 hours; Conc. ([7]; 50:10:38.5:1.5 Lipid:DSPC:Chol:PEG-DMG): 454.58 µg/mL; pKa [3, 13]: 6.164; EE (%) [5, 13]: 51.46%; Size (nm) [6, 12]: 98.5 nm; PDI [6, 13]: 0.11; Size (nm) [6, 13]: 95.2 nm |
| CCCCCCCCCCCCN(CCCCCCCCCCCC)CCN(CCCCCCCCCCCC)CCN1CCN(CCN(CCCCCC(=O)OCCCCC)CCCCCC(=O)OCCCCC)CC1 [Compound 14, Dipentyl 6,6′-((2-(4-(2-((2-(didodecylamino)ethyl)(dodecyl)amino)ethyl)piperazin-1-yl)ethyl)azanediyl)dihexanoate] | 9.86E+08 | 1.56E+09 | 1.02E+08 | – | – | 17 | 6.31 | – | 2.62E+08 | 3.56E+06 | 1.46E+07 | 96.6 | 0.008 | 88.7 | 209 | significantly lower | 603.76 | 6.308 | 98.91 | 0.14 | hEPO (pg/mL) 3 hours (hEPO mRNA expression; Table 6, rats, i.v., 0.2 mg/kg or 0.5 mg/kg, 3 hours): 280973 pg/mL; hEPO (pg/mL) 6 hours (hEPO mRNA expression; Table 6, rats, i.v., 0.2 mg/kg or 0.5 mg/kg, 6 hours): 158520 pg/mL; hEPO (pg/mL) 24 hours (hEPO mRNA expression; Table 6, rats, i.v., 0.2 mg/kg or 0.5 mg/kg, 24 hours): 58805 pg/mL; Lipid/MC3 hEPO S.D. (rats) (hEPO mRNA expression; hEPO expression relative to MC3, S.D. rats, intravenous): 0.12; concentration at 48 h ([8]; liver, read-out: Lipid in liver): 3990 ng/g; concentration at 48 h ([8]; spleen, read-out: Lipid in spleen): 1620 ng/g; % remaining dose in liver ([8]; liver): 5.54%; % remaining dose in spleen ([8]; spleen): 0.15%; Size (nm) [6, 12]: 76.8 nm |
| CCCCCCCCCCCCN(CCCCCCCCCCCC)CCN(CCCCCCCCCCCC)CCN1CCN(CCN(CCCCCCCCCCCC)CCCCCCCCCCCC)CC1 [KL22, N1-[2-(didodecylamino)ethyl]-N1,N4,N4-tridodecyl-1,4-piperazinediethanamine, reference compound] | – | – | – | do not express hEPO in rats | toxic | – | – | – | – | – | – | – | – | – | – | – | – | – | – | – | response vs control in vivo at 0.5 mg/kg (LDL-c; Mus musculus, Table 7b, LDLr−/− mice, 0.5 mpk, LDLr, read-out: LDL levels lipid/untreated LDLr−/− mice 0.5 mpk, LDLr): 51% |
